From US9730874B2, “Nitrone compounds and their use in personal care” (Dow Global Technologies LLC, priority 2014, dated 2017)

Experiment: Oxygen Radical Absorbance Capacity (ORAC) antioxidant potential
Type: biochemical
Conditions: calculated from ORAC values (AUC minus blank) vs Trolox; test concentration 100 micromolar
Procedure: Antioxidant potential is evaluated using the Oxygen Radical Absorbance Capacity (ORAC) protocol. ORAC is a chemical in-vitro method based on the hydrogen atom transfer (HAT) mechanism (see N. Re et al., Free Radical Biology & Medicine, 26 (9/10), 1231 (1997)). ORAC measures antioxidant inhibition of peroxyl radical induced oxidations and thus reflects classical radical chain breaking antioxidant activity by H atom transfer. In this assay, the peroxyl radical reacts with a fluorescent probe to form a non-fluorescent product. This is quantitated using a fluorescence measurement. Antioxidant capacity is determined by decreased rate and amount of product formed over time. This assay depends upon the free radical damage to the fluorescent probe resulting in the change in its fluorescence intensity. The change of fluorescence intensity is an indicator of the degree of free radical damage. In the presence of an antioxidant, the inhibition of free radical damage is reflected in higher fluorescence intensity and can be measured as antioxidant capacity against the free radicals. The uniqueness of ORAC assay is that the reaction is driven to completion. This allows calculation of the area under the curve (AUC) and gives an absolute quantitation of antioxidancy as opposed to relative measurements in many other assays.
As noted, the longer it takes to observe a decrease in fluorescence, the higher the antioxidant (AO) potential. From the AUC for a given antioxidant, the AUC for blank is subtracted to give its ORAC value. The concentration of AO needed to give the same AUC values as Trolox is calculated and used to represent the Trolox equivalent AO Capacity (TEAC). Trolox is ((±)-6-Hydroxy-2,5,7,8-tetramethylchromane-2-carboxylic acid, CAS #53188-07-1), and is used as an internal control.
The ORAC test is conducted in the stilbene-pendant nitrone compounds of Table 1 above (inventive compounds) as well as to Vitamin C, Vitamin E, and the following comparative compounds:
The inventive stilbene-pendant nitrones in the ORAC test solutions were at a concentration of 100 micromolar, while the concentrations of Trolox, Vitamin C, Vitamin E, BHT, PBN+BHT, and VAL-IPHA were at 100 micromolar. The TEAC values calculated from the ORAC values are listed the Table 3.

In the case of `CC(C)(C)/[N+]([O-])=C/c1ccccc1` [PBN, 2-Phenyl-N-tert-butylnitrone, reference compound], the “TEAC (Trolox equivalent AO Capacity)” value is reported as “not very high”.

Compared with `COc1cc(/C=C/c2ccc(O)c(/C=[N+](/[O-])Cc3ccc(O)cc3O)c2)ccc1O` [Sald-24DHBzHA, N-(2-Hydroxy-5-(4-hydroxy-3-methoxystyryl)benzylidene)-1-(2,4-dihydroxyphenyl)methanamine oxide], `COc1cc(/C=C/c2ccc(O)c(/C=[N+](/[O-])Cc3ccc(O)c(O)c3)c2)ccc1O` [Sald-34-DHBzHA, N-(2-Hydroxy-5-(4-hydroxy-3-methoxystyryl)benzylidene)-1-(3,4-dihydroxyphenyl)methanamine oxide] is lower in “TEAC (Trolox equivalent AO Capacity)” value: 7.31 for the first, 7.16 for the second.

Going from `COc1cc(/C=C/c2ccc(O)c(/C=[N+](/[O-])Cc3ccccc3)c2)ccc1O` [Sald-BzHA, N-(2-Hydroxy-5-(4-hydroxy-3-methoxystyryl)benzylidene)-1-phenylmethanamine oxide] to `COc1cc(/C=C/c2ccc(O)c(/C=[N+](/[O-])Cc3ccc(O)cc3)c2)ccc1O` [Sald-pHBzHA, N-(2-Hydroxy-5-(4-hydroxy-3-methoxystyryl)benzylidene)-1-hydroxyphenylmethanamine oxide], the “TEAC (Trolox equivalent AO Capacity)” value rises from 8.33 to 9.02.

Compared with `O=C1O[C@H]([C@@H](O)CO)C(O)=C1O` [Vitamin C, reference compound], Vitamin E [reference compound] is lower in “TEAC (Trolox equivalent AO Capacity)” value: 0.76 for the first, 0.13 for the second.
